Laboratory results published in patent US20070142417A1, “Substantially Pure 2-{[2-(2-Methylamino-Pyrimidin-4-YL)-1H-Indole-5-Carbonyl]-Amino}-3-Phenylpyridin-2-YL-Amino)-Propionic Acid as an IkB Kinase Inhibitor” (AVENTIS PHARMACEUTICALS INC, priority 2005, published 2007).
Read-outs that look alike come from different tables or passages of the source.

Tests used:
[1] = system: IL-1β-induced NF-κB activation; assay: NF-κB-Luciferase Reporter Mouse Model, dose response determination; type: in vivo, Balb/c female mice; settings: for effect on IL-1β-induced NF-κB activity: intranasal dosing 0.3-10 mg/kg, FIGS. 1 and 2
Protocol: A. NF-κB-Luciferase Reporter Mouse Model Methods employed for mouse imaging studies with Compound (A) and Compound (B). General Description Compounds were used as nanomilled suspensions in 0.2% Tween-80 in PBS and were dosed through the intranasal route. Intranasal drug and inflammatory stimulus administration: Mice are anesthetized in 4% is isoflurane gas in oxygen. A volume of 25 μl is applied to each nostril and the mice are allowed to breathe in the suspension. Balb/c female mice at 6-8 weeks of age were used for studies in which AdV-NFκB-luciferase reporter was instilled in the lung. To imagine mice, they are anesthetized with 4% isoflurane in oxygen. Luciferin is delivered i.p. at a dose of 150 mg/kg. 10 minutes after luciferin injection, the animals are imaged in an IVIS200 system (Xenogen) with a one-minute bioluminescent exposure. Alternatively, 10-15 minutes post luciferin administration, mice are rapidly euthanized and internal tissues are dissected and imaged ex vivo. B. Dose Response Determination 1-2×10^8 pfu adenovirus-NFκB-luciferase is delivered intranasally 3-5 days prior to stimulation (i.n.) with an inflammatory stimulus (IL-1β or LPS). Animals are dosed i.n. with 0.3-10 mg/kg of compound 30 min—1 h prior to challenge with 0.5 μg LPS or 50 ng IL-1β. Animals are then imaged once or several times from 1 h to 24 h after the inflammatory stimulus is administered.

[2] = Pharmacokinetic procedures: compound levels in lung and plasma after intra-tracheal instillation; type: in vivo, Male Hartley guinea pigs; settings: for systemic exposure after intratracheal administration: i.t. administration; for Kp at 1 h: male, Hartley, guinea pig, lung and plasma, other: intra-tracheal instillation, i.t. instillation 0.01-0.3 mg/kg, 1 h after dosing, depending on the dose, read-out: lung to plasma ratio
Protocol: C. Pharmacokinetic Procedures
Male Hartley guinea pigs (450-550 g) previously sensitized with ovalbumin were used for the determination of compound levels in lung and plasma. Nanomilled suspensions of Compound (A) and Compound (B) were dosed via intra-tracheal instillation at 0.01, 0.03, 0.1 and 0.3 mg/kg. One hour after dosing, animals were euthanized (Euthasol), and 1 mL blood samples were obtained by cardiac puncture and collected into heparin-coated syringes. Plasma was separated from the cellular component of the blood by centrifugation, and stored at −80° C. until assayed. Lungs were dissected out, blotted dry, weighted and stored in 20-25 mL glass vials individually at −80° C. until assayed for compound levels.
The lung to plasma ratio for Compound (A) ranges from 143 to 284 (depending on the dose) whereas the lung to plasma ratio for Compound (B) ranges from 13 to 44 (depending on the dose). These ratios were obtained by dividing the lung compound levels to that of the corresponding plasma levels at the same dose.

[3] = target: T1, IκB kinase (IKK enzyme preparation) (Homo sapiens, UniProt O14920); assay: IKK-Enzyme ELISA; type: biochemical
T1 sequence (O14920 1-756): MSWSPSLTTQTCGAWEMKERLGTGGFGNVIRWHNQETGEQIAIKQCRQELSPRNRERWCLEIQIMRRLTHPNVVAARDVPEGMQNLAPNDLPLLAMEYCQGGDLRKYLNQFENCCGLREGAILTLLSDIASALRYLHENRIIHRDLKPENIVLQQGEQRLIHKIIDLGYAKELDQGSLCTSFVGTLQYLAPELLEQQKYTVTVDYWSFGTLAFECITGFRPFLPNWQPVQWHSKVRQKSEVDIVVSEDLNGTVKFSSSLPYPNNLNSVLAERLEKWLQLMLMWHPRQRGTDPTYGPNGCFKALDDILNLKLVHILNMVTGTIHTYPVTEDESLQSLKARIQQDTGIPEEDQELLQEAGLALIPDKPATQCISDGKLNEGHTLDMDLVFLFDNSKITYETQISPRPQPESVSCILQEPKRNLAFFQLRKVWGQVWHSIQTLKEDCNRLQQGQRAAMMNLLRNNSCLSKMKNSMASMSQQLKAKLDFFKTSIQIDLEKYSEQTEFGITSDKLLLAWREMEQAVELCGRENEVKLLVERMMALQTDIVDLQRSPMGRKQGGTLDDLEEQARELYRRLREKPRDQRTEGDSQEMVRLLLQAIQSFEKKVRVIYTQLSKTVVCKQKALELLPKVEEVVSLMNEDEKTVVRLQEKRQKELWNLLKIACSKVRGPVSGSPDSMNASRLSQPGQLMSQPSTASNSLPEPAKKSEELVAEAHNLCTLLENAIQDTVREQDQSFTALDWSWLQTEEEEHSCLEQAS
Protocol: The assay buffer has the following composition (50 mM HEPES, 10 mM MgCl2, 10 mM β-Glycerophosphate, 2 μM Microcystin-LR, 0.01% NP-40, 5 mM DTT).
The IKK enzyme preparation was diluted 1:50 (in-house-made preparation) plus test compound in DMSO (final concentration in well: 2%).
The assay procedures were as follows:
Incubation of enzyme and compound for 30 min;
pSer36-IkB Peptide (Substrate): 40 μM;
Incubation for 45 min and Addition of anti-pSer32-pSer36-IkB Peptid-antibody;
Incubation for 45 min and transfer to protein-G-coated plate;
Incubation for 90 min followed by 3× washing;
Addition of streptavidin-HRP, then incubation 45 min followed by 6× washing;
Addition of TMB and Incubation for 15 min; and
Stop solution and read using photometer.

[4] = read-out: IC50 (nM) 50 μM ATP, 50 μM ATP
[5] = read-out: IC50 (nM) 1 mM ATP, 1 mM ATP

Row | Structure (SMILES) | effect on IL-1β-induced NF-κB activity [1] | lung exposure after i.t. instillation ([2]; 0.3 mg/kg i.t., FIG. 3) | systemic exposure after oral administration [2] | systemic exposure after intratracheal administration [2] | Kp at 1 h [2] | IC50 [3, 4] [nM] | IC50 [3, 5] [nM] | ED50 ([1]; Mus musculus, intranasal nanomilled suspension, 0.3-10 mg/kg, IL-1β challenge, lung bioluminescence, read-out: estimated ED50, IL-1β-induced NF-κB activation) [mg/kg]
1 | CNc1nccc(-c2cc3cc(C(=O)N[C@@H](CN(c4ccccc4)c4ccccn4)C(=O)NOC)ccc3[nH]2)n1 [Compound (B)] | inhibited in a dose-dependent manner | low relative to Compound (A) | highly systemically available | highly systemically distributed | 13 to 44 | 0.8 | 56.4 | –
2 | CNc1nccc(-c2cc3cc(C(=O)N[C@@H](CN(c4ccccc4)c4ncccn4)C(=O)O)ccc3[nH]2)n1 [(D)] | – | – | – | – | – | – | 3.8 | –
3 | CNc1nccc(-c2cc3cc(C(=O)N[C@@H](CN(c4ccccc4)c4ccccn4)C(=O)O)ccc3[nH]2)n1 [Compound (A), 2-{[2-(2-Methylamino-pyrimidin-4-yl)-1H-indole-5-carbonyl]-amino}-3-(phenyl-pyridin-2-yl-amino)-propionic acid] | inhibited in a dose-dependent manner | – | low systemic exposure | low systemic exposure | 143 to 284 | 0.4 | 0.08 | ~1
4 | CNc1nccc(-c2cc3cc(C(=O)N[C@@H](CN(c4ccccc4)c4ccccn4)C(=O)OC)ccc3[nH]2)n1 [(C)] | – | – | – | – | – | 16.8 | 378 | –
